From the NIST ThermoML archive (doi:10.1021/je700266n)

Experiment: xn = mol fraction of the nth substance listed
Settings: 101 kPa, Liquid

CCCCn1cc[n+](C)c1.F[P-](F)(F)(F)(F)F [1-butyl-3-methylimidazolium hexafluorophosphate] + c1ccccc1
mass density [kg/m3]
Settings | 293.15 K | 298.15 K | 303.15 K | 308.15 K | 313.15 K | 323.15 K | 333.15 K | 343.15 K
x1 = 0.34 | 1166.34 | 1161.8 | 1157.16 | 1152.56 | 1148.35 | 1139.5 | 1129.94 | 1120.87
x1 = 0.3995 | 1197.59 | 1193.15 | 1188.62 | 1184.16 | 1180.04 | 1171.45 | 1162.13 | 1153.45
x1 = 0.4999 | 1239.2 | 1234.86 | 1230.38 | 1226.01 | 1222.02 | 1213.65 | 1204.95 | 1196.96
x1 = 0.5999 | 1274.25 | 1269.99 | 1265.61 | 1261.3 | 1257.39 | 1249.14 | 1240.67 | 1233.13
x1 = 0.7 | 1304.29 | 1299.95 | 1295.6 | 1291.34 | 1287.35 | 1279.03 | 1270.76 | 1263.66
x1 = 0.8003 | 1329.79 | 1325.97 | 1321.58 | 1317.28 | 1313.09 | 1304.76 | 1296.68 | 1289.79
x1 = 0.9001 | 1351.51 | 1347.29 | 1342.85 | 1338.55 | 1334.45 | 1326.2 | 1317.85 | 1310.77
x1 = 1 | 1371.57 | 1367.22 | 1362.86 | 1358.56 | 1354.3 | 1345.98 | 1337.7 | 1330.76
